biological target: T1, recombinant Human CYP17 enzyme (17-20 lyase) (Homo sapiens, UniProt P05093); experiment: Cytochrome P450, 17-20 lyase (CYP17-lyase) assay, 17-α-hydroxy pregnenolone [21-3H] as substrate; format: biochemical; conditions: at 10 μM; read-out: hCYP17 Lyase % Inh
T1 construct: made in house; host or cells: A549 cells, adenoviral expression system; purified cell membrane preparations
T1 sequence (P05093 1-508): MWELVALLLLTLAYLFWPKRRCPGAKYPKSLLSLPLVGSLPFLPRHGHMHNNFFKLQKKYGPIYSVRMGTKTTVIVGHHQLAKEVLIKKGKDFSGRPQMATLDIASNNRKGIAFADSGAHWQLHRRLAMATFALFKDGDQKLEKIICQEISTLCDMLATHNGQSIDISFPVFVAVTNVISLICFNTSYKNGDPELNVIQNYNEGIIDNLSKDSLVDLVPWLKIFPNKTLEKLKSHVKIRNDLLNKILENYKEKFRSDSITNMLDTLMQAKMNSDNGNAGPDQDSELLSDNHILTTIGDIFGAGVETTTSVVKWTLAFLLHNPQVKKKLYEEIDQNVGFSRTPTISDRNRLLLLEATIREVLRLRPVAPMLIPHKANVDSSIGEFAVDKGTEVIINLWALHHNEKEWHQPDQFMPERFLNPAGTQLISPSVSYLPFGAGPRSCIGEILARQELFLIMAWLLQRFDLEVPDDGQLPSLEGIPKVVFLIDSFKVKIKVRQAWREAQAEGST
Excerpt: 1) Cytochrome P450, 17-20 Lyase (CYP17-Lyase) Assay Development Using Recombinant Human CYP17 Enzyme and 17-α-Hydroxy Pregnenolone [21-3H] as the Substrate.
Cytochrome P450, 17-α-Hydroxylase, 17-20 lyase (CYP17) is a multi functional enzyme that plays a key role in the biosynthesis of steroid hormones. It catalyses both conventional hydroxylation and also the carbon-carbon bond cleavage reactions (Peter Lee-Robichaud et al, Biochem. J, (1997) 321, 857-63). In the hydroxylation reaction, it converts progesterone and pregnenolone to the corresponding hydroxylated products 17-α-hydroxy progesterone and 17-α-hydroxy pregnenolone. In the lyase reaction, it catalyzes the conversion of these hydroxylated substrates to Androstenedione and Dehydroepiandrosterone (DHEA) respectively. In the Cyp17 lyase assay described here, the conversion of 17-α-hydroxy pregnenolone to Dehydroepiandrosterone and acetic acid is being monitored.
Assay method was adopted from a published protocol with some modifications to suit our requirements (Dmitry N Grigoryev et al, Analytical Biochemistry, (1999) 267, 319-330). The conversion of 17-α-hydroxy pregnenolone to Dehydroepiandrosterone is accompanied by the release of acetic acid. In the Cyp17 lyase assay, 17-α-hydroxy pregnenolone labeled with tritium (3H) at position 21 is used as the substrate. Chloroform extraction removes the radioactive steroids and acetic acid is taken into aqueous layer. The tritiated acetic acid released in the assay thus extracted is quantified to determine the enzyme activity.
Initial buffer conditions were, 50 mM Phosphate buffer, pH 7.5 was used as the starting buffer for Cyp17 lyase activity based on the data published in US patent publication No. US2004/0198773 A1. […] Human Cyp 17 gene was cloned and expressed in Adenoviral expression system in A549 cell lines. The purified cell membrane preparations were used as the source for Human CYP17 enzyme. Total protein concentration: 8 mg/mL.
For routine screening, the assay was set up with 16 μg of enzyme in 50 μL reaction volume. 17α-hydroxy pregnenolone [21-3H] was added to a final concentration of 0.25 μM. NADPH is used at a final concentration of 4.2 mM. Total reaction volume was made up to 50 μL with 50 mM Phosphate buffer pH 7.5. The reaction mixture was incubated at room temperature for 90 minutes with gentle shaking. The reaction was stopped by the addition of 100 μL of buffer. 500 μL of 5% freshly prepared activated charcoal was added to the solution and mixed well by vortexing. The samples were centrifuged at 17568×g for 5 minutes. (14000 rpm). The supernatant was carefully transferred to fresh tube and 1.3 mL of scintillation fluid was added, mixed by vortexing.
The radioactivity was measured in a 1450 MicroBeta TriLux™ scintillation counter from Wallac-Perkin Elmer®, USA. The measurements were carried out in 2.0 mL Eppendorf™ tubes. Each tube was counted for 1 minute. The amount of tritiated acetic acid released is proportional to the lyase activity. Percent lyase activity in presence of inhibitor was calculated using the formula given below.
[formula] • Sample: Enzyme reaction in presence of inhibitor. • Positive control: Enzyme reaction without inhibitor but containing DMSO at 1% final concentration. • Blank—Contains all reagents except enzyme. • % Inhibition=100%−% Lyase activity
For IC50 determination, the % inhibition was plotted as a function of inhibitor concentration. The data was fitted to sigmoidal equation using Graphpad Prism® software IV to generate IC50 values.

SMILES | inhibition at 10 µM
O=C1c2sccc2CCN1c1cccnc1 [Example 6A, 6-Pyridin-3-yl-5,6-dihydro-4H-thieno[2,3-c]pyridin-7-one] | 48%
Cc1ccncc1N1CCc2sccc2C1=O [Example 7A, 5-(4-Methyl-pyridin-3-yl)-6,7-dihydro-5H-thieno[3,2-a]pyridin-4-one] | 75%
Cc1ccncc1N1CCc2c(cccc2C(F)(F)F)C1=O [Example 22A, 2-(4-Methyl-pyridin-3-yl)-5-trifluoromethyl-3,4-dihydro-2H-isoquinolin-1-one] | 42%
Cc1ccncc1-n1ccc2ccc(NC(=O)C3CC3)cc2c1=O [Example 24A, Cyclopropanecarboxylic acid [2-(4-methyl-pyridin-3-yl)-1-oxo-1,2-dihydro-isoquinolin-7-yl]-amide] | 53%
Cc1ccncc1N1CCc2ccc(NC(=O)C3CC3)cc2C1=O [Example 25A, Cyclopropanecarboxylic acid [2-(4-methyl-pyridin-3-yl)-1-oxo-1,2,3,4-tetrahydro-isoquinolin-7-yl]-amide] | 35%

More lines, now with the values ahead:

inhibition at 10 µM | SMILES
91% | Cc1ccncc1N1CCc2ccsc2C1=O [Example 5A, 6-(4-Methyl-pyridin-3-yl)-5,6-dihydro-4H-thieno[2,3-c]pyridin-7-one]
27% | O=C1c2ccsc2CCN1c1cccnc1 [Example 8A, 5-Pyridin-3-yl-6,7-dihydro-5H-thieno[3,2-c]pyridin-4-one]
64% | Cc1ccncc1N1CCc2c(Cl)cccc2C1=O [Example 12A, 5-Chloro-2-(4-methyl-pyridin-3-yl)-3,4-dihydro-2H-isoquinolin-1-one]
35% | Cc1ccncc1N1CCc2scc(-c3ccc(F)cc3)c2C1=O [Example 15A, 3-(4-Fluoro-phenyl)-5-(4-methyl-pyridin-3-yl)-6,7-dihydro-5H-thieno[3,2-c]pyridin-4-one]
66% | Cc1ccncc1-n1ccc2ccc(C(F)(F)F)cc2c1=O [Example 29A, 2-(4-Methyl-pyridin-3-yl)-7-trifluoromethyl-2H-isoquinolin-1-one]
41% | Cc1ccncc1N1CCc2ccc(Nc3ccccc3)cc2C1=O [Example 30A, 2-(4-methylpyridin-3-yl)-7-(phenylamino)-3,4-dihydroisoquinolin-1(2H)-one]

same assay, conditions: human CYP17 lyase; substrate 0.25 μM; room temperature, 90 minutes; read-out: Lyase IC 50 nM Human

SMILES | IC50
O=C1c2cc(Cl)ccc2CCN1c1cccnc1 [Example 1A, 7-Chloro-2-pyridin-3-yl-3,4-dihydro-2H-isoquinolin-1-one] | 60 nM
Cc1ccncc1N1CCc2ccc(-c3ccc(F)cc3)cc2C1=O [Example 3A, 7-(4-Fluoro-phenyl)-2-(4-methyl-pyridin-3-yl)-3,4-dihydro-2H-isoquinolin-1-one] | 1210 nM
Cc1ccncc1N1CCc2ccc(C(F)(F)F)cc2C1=O [Example 4A, 2-(4-Methyl-pyridin-3-yl)-7-trifluoromethyl-3,4-dihydro-2H-isoquinolin-1-one] | 5.5 nM
Cc1ccncc1N1CCc2sc3ccccc3c2C1=O [Example 9A, 2-(4-Methyl-pyridin-3-yl)-3,4-dihydro-2H-benzo[4,5]thieno[3,2-c]pyridin-1-one] | 1.5 nM
Cc1ccncc1N1CCc2cc(O)ccc2C1=O [Example 11B, 6-Hydroxy-2-(4-methyl-pyridin-3-yl)-3,4-dihydro-2H-isoquinolin-1-one] | 139 nM
Cc1ccncc1N1CCc2sc(-c3ccc(F)cc3)cc2C1=O [Example 14A, 2-(4-Fluoro-phenyl)-5-(4-methyl-pyridin-3-yl)-6,7-dihydro-5H-thieno[3,2-c]pyridin-4-one] | 755 nM
O=C1c2cc(C(F)(F)F)ccc2CCN1c1cccnc1 [Example 16A, 2-Pyridin-3-yl-7-trifluoromethyl-3,4-dihydro-2H-isoquinolin-1-one] | 175 nM
O=C1c2cc(C(F)(F)F)ccc2CCN1c1cnccc1C(F)(F)F [Example 21A, 7-Trifluoromethyl-2-(4-trifluoromethyl-pyridin-3-yl)-3,4-dihydro-2H-isoquinolin-1-one] | 56 nM
Cc1ccncc1N1CCc2ccc(C#N)cc2C1=O [Example 32A, 2-(4-methylpyridin-3-yl)-1-oxo-1,2,3,4-tetrahydroisoquinoline-7-carbonitrile] | 301 nM

The next lines start with the values.

IC50 | SMILES
37 nM | Cc1ccncc1N1CCc2ccc(Cl)cc2C1=O [Example 2A, 7-Chloro-2-(4-methyl-pyridin-3-yl)-3,4-dihydro-2H-isoquinolin-1-one]
3.5 nM | Cc1ccncc1N1CCc2ccc3ccccc3c2C1=O [Example 10A, 2-(4-Methyl-pyridin-3-yl)-3,4-dihydro-2H-benzo[h]isoquinolin-1-one]
214 nM | COc1ccc2c(c1)CCN(c1cnccc1C)C2=O [Example 11A, 6-Methoxy-2-(4-methyl-pyridin-3-yl)-3,4-dihydro-2H-isoquinolin-1-one]
917 nM | COc1cccc2c1CCN(c1cnccc1C)C2=O [Example 13A, 5-Methoxy-2-(4-methyl-pyridin-3-yl)-3,4-dihydro-2H-isoquinolin-1-one]
95 nM | Cc1ccncc1N1CCc2cc(C(F)(F)F)ccc2C1=O [Example 17A, 2-(4-Methyl-pyridin-3-yl)-6-trifluoromethyl-3,4-dihydro-2H-Isoquinolin-1-one]
334 nM | O=C1c2cc(C(F)(F)F)ccc2CCN1c1cncc(F)c1 [Example 18A, 2-(5-Fluoro-pyridin-3-yl)-7-trifluoromethyl-3,4-dihydro-2H-isoquinolin-1-one]
44 nM | O=C1c2cc(C(F)(F)F)ccc2CCN1c1cncc2ccccc12 [Example 19A, 7-Trifluoromethyl-3,4-dihydro-[2,4′]biisoquinolinyl-1-one]
369 nM | Cc1ccncc1N1CC(C)(C)c2ccc(C(F)(F)F)cc2C1=O [Example 20A, 4,4-Dimethyl-2-(4-methyl-pyridin-3-yl)-7-trifluoromethyl-3,4-dihydro-2H-isoquinolin-1-one]
227 nM | Cc1ccncc1N1CCc2ccccc2C1=O [Example 23A, 2-(4-Methyl-pyridin-3-yl)-3,4-dihydro-2H-isoquinolin-1-one]
17 nM | COc1ccc2c(c1)C(=O)N(c1cnccc1C)CC2 [Example 26A, 7-Methoxy-2-(4-methyl-pyridin-3-yl)-3,4-dihydro-2H-isoquinolin-1-one]
83 nM | Cc1ccncc1N1CCc2ccc(O)cc2C1=O [Example 27A, 7-Hydroxy-2-(4-methyl-pyridin-3-yl)-3,4-dihydro-2H-isoquinolin-1-one]
70 nM | CCn1ccc2c1C(=O)N(c1cnccc1C)CC2 [Example 28A, 1-Ethyl-6-(4-methyl-pyridin-3-yl)-1,4,5,6-tetrahydro-pyrrolo[2,3-c]pyridin-7-one]
727 nM | Cc1ccncc1N1CCc2ccc(OCC3CC3)cc2C1=O [Example 31A, 7-(cyclopropylmethoxy)-2-(4-methylpyridin-3-yl)-3,4-dihydroisoquinolin-1 (2H)-one]

— US8946260B2, “17α-hydroxylase/C17,20-lyase inhibitors” (Novartis AG, priority 2010, dated 2015)
